Assay results: patent US7108845B2, “Methods of synthesis and use of radiolabelled platinum chemotherapeutic agents” (Australian Nuclear Science & Technology Organisation, priority 2000, dated 2006)

Assays:
oesophageal cancer [1] = experiment: Pilot clinical study: imaging of uptake of ^195mPt-Cisplatin in lesions; assay type: in vivo, patients
Experimental: As part of a pilot study to evaluate the use of ^195mPt-Cisplatin and ^195mPt Carboplatin for prognosis of cancer, two patients were injected with ^195mPt-Cisplatin prepared as described in Example 2.
(§1) Patient No. 1 had oesophageal cancer, with one large lesion in the mediastinal region and large metastases in the liver. F-18-DG imaging confirmed the presence of both lesions. The patient was injected with ^195mPt-Cisplatin (100 MBq; specific activity 4.2 MBq/mg cisplatin) and imaged over a 5 day period. […] The patient was placed on a normal cisplatin chemotherapy in combination with radiation.
Patient No. 2 had oesophageal cancer. CT confirmed a large lesion in the mediastinal region. The patient was injected with ^195mPt-Cisplatin (50 MBq: specific activity 3.6 MBq/mg cisplatin) and Imaged over a 3 day period. […] The patient has undergone cisplatin chemotherapy and is being monitored for response to treatment.

oesophageal cancer [2] = experiment: Response to normal cisplatin chemotherapy in combination with radiation; assay type: in vivo, patients; conditions: Patient No. 1, after 2 months
Experimental: as §1

N.N.[Cl][195Pt][Cl] [^195mPt-Cisplatin, [^195mPt]Cisplatin]
uptake of the radiolabelled cisplatin in lesions (oesophageal cancer [1]; Patient No. 1, lesion in mediastinal region and liver metastases, injected 100 MBq (4.2 MBq/mg cisplatin), imaged over a 5 day period): negligible uptake | uptake of the ^195mPt-Cisplatin in the mediastinal region (oesophageal cancer [1]; Patient No. 2, large lesion in mediastinal region, injected 50 MBq (3.6 MBq/mg cisplatin), imaged over a 3 day period): significant uptake

N.N.[Cl][Pt][Cl] [cisplatin, cis-dichlorodiammine-platinum(II)]
response to treatment (oesophageal cancer [2]): no evidence of response to treatment
